# Source: US20220364069A1, “METHOD FOR THE PRODUCTION OF AN ENZYMATIC COMPOSITION COMPRISING A RECOMBINANT ENDOPEPTIDASE” (NEMYSIS LIMITED, priority 2019, published 2022)
# Where two headings read alike, the source gives them in different places.
# B1: Native E40: E40 of SEQ ID NO: 3 purified from supernatant fraction of an Actinoallomurus A8 culture as in WO2013083338 (protein)
# chain: MSRRVTGTILGGLILAMVPFLSTAANAAPQAAPASVSHPFHHSCATVKPGRASCNALVRSDIAQSAATLAHQAAAPSGLSPANLQSAYKLPSSTAGSGQTVAIVDAYDAPTAEADLNVYRSQFGLGACTTANGCFKKVDQNGGTSYPRKDGGWAQEISLDLDMVSAVCPNCKIVLVEAKTNSFANLGTAENTAASLANVISNSYGGSDASDASYGSYYNHPGKAITVSSGDAGYGVEYPASSHYVTAVGGTSLRTASTSRGWSETAWSGAGSGCSAYNTALSGQSGLTGCSRRAVADVSAVADPATGVAVYDSTAYQGQSGWMVFGGTSVAAPIIGGVYGLAANAASIDNNYPYAHTSSLFDVTSGSNGTCTTTKWCTAGTGWDGPTGLGTPNGTGAF
# modifications: Actinoallomurus
# Assays:
# Escherichia coli L47 = experiment: Broth microdilution antimicrobial assay, E. coli; assay type: cell-based; conditions: E. coli L47, 18 h, 35° C.; for MIC: Escherichia coli, read-out: MIC (Minimal Inhibitory Concentration)
# From the text: (§1) As known, S. lividans TK24 could potentially produce actinorhodin (ACT), undecylprodigiosin (UDP), and calcium-dependent antibiotic (CDA), especially when grown under fermentation conditions. Broth microdilution assay, standardized by the Clinical and Laboratory Standards Institute (CLSI) was then used to evaluate antibiotic presence in samples deriving from enzyme preparations obtained by the method of the invention. Antimicrobial activity has been tested against test microorganisms (test-mo), known to not show any antibiotic resistance: Staphylococcus aureus ATCC6538 (representative of Gram+); Escherichia coli L47 (Lepetit collection; representative of Gram-); Candida albicans L145 (Lepetit collection; representative of Yeast).
# (§2) A two-fold serial dilution of the samples to be tested was performed in sterile 96-well microplates, then inoculated with the test-mo in their respective medium (100 μl/well final volume); each determination was carried out in triplicate. The inoculated microplates were then incubated for 18, 20 and 24 h for E. coli, S. aureus and C. albicans, respectively, at 35° C. Antimicrobial activity of samples of unknown “antimicrobial” concentration was measured as endpoint, that is the highest dilution that inhibits the test strain growth; it was determined by visual examination of the microplates with the aid of a magnifying mirror.
# Candida albicans L145 = experiment: Broth microdilution antimicrobial assay, C. albicans; assay type: cell-based; conditions: for MIC: Candida albicans, L145, read-out: MIC (Minimal Inhibitory Concentration)
# From the text: as §1, §2
# [1] = system: Staphylococcus aureus ATCC6538; experiment: Broth microdilution antimicrobial assay, S. aureus; assay type: cell-based; conditions: S. aureus ATCC6538, 20 h, 35° C.; for MIC: Staphylococcus aureus, read-out: MIC (Minimal Inhibitory Concentration)
# From the text: as §1, §2
# gliadin = experiment: Gliadin digestion by native E40 fraction (SDS-PAGE); assay type: biochemical; conditions: 2 hours, 37° C., pH 3
# Description: (§3) FIG. 1. Activity of Actinoallomurus A8 culture supernatant fraction containing the native E40. A: relative activity toward the substrate sucAlaAlaProPhe-AMC (sucAAPF-AMC) at various pH values (the optimum —100% activity— is at pH 5). B: Gliadin digestion after 2 hours of incubation at 37° C., pH 3. Gel stained with Coomassie R250 brilliant blue; Lane 1: gliadin alone, lane 2: gliadin+E40-containing supernatant fraction.
# Native E40 of sequence SEQ ID NO: 3 was purified from the supernatant fraction of an Actinoallomurus A8 culture isolated from soil (native E40) as described in WO2013083338.
# [2] = Activity of culture supernatant toward sucAAPF-AMC at various pH; assay type: biochemical
# Description: as §3
# FIG. 3. Recombinant E40 (SEQ ID NO: 2) obtained by S. lividans TK24/p1J86/e40 submerged fermentation, at flask scale (panels A-C) or in a 15 L bioreactor, followed by purification (panels D-E). A: activity toward the substrate sucAAPF-AMC at pH 5 of supernatant samples taken at different fermentation times (♦72, ▴96, ●168, ▪192 fermentation hours) from the producing S. lividans TK24/p1J86/E40 (E40, continuous line) and absence of activity of supernatant samples taken from the pIJ86-empty control strain (ctr, dashed lines). Activity is shown as relative fluorescent units (rfu, Y axis) produced in time (X axis). […] D: profile of an enzyme preparation comprising recombinant E40 purified from the 15 L fermentation; lane 1: final enzyme preparation comprising recombinant E40 stained with Coomassie (the arrow indicates recombinant E40), lane 2: zymography as in C, lane 3: band of gelatin hydrolysis after 2 hours of digestion at 37° C. and pH 5, visualized after Coomassie staining of the gelatin substrate. E: relative activity (%) of recombinant E40 in the purified enzyme preparation at different pH values (from 2 to 8), evaluated with the substrate suc-Ala-Ala-Pro-Phe-pNA.
# As well as native E40, recombinant E40 was active in the pH range 3-6, with an optimum at pH 5 (FIG. 3, panel B).
molecule,measurement,setting,value
"C[C@@H]1[C@H](O)[C@@H](C)/C=C/C=C/C=C/C=C/C=C/C=C/C=C/[C@H](O[C@@H]2O[C@H](C)[C@@H](O)[C@H](N)[C@@H]2O)C[C@@H]2O[C@](O)(C[C@@H](O)C[C@@H](O)[C@H](O)CC[C@@H](O)C[C@@H](O)CC(=O)O[C@H]1C)C[C@H](O)[C@H]2C(=O)O [Amphotericin B, amphotericin B]",MIC (Minimal Inhibitory Concentration),Escherichia coli L47,>128 µg/mL
same,MIC (Minimal Inhibitory Concentration),"Candida albicans L145; C. albicans L14, 24 h, 35° C.",0.5 µg/mL
same,MIC (Minimal Inhibitory Concentration),[1],>128 µg/mL
CN[C@@H]1[C@@H](O[C@H]2O[C@H](CO)[C@@H](N)[C@H](O)[C@H]2O)OC2C[C@@H](N)[C@@H](O[C@H]3[C@H](O)[C@@H](O)[C@H](N)C[C@@H]3N)OC2[C@@H]1O (stereo partly shown) [Apramycin],MIC,Escherichia coli L47,8 µg/mL
same,MIC,"Candida albicans L145; C. albicans L14, 24 h, 35° C.",> 128 µg/mL
same,MIC,[1],8 µg/mL
"CCCCCCCCCC(=O)N[C@@H](Cc1c[nH]c2ccccc12)C(=O)N[C@H](CC(N)=O)C(=O)N[C@@H](CC(=O)O)C(=O)N[C@@H]1C(=O)NCC(=O)N[C@@H](CCCN)C(=O)N[C@@H](CC(=O)O)C(=O)N[C@H](C)C(=O)N[C@@H](CC(=O)O)C(=O)NCC(=O)N[C@H](CO)C(=O)N[C@@H]([C@H](C)CC(=O)O)C(=O)N[C@@H](CC(=O)c2ccccc2N)C(=O)O[C@@H]1C [Daptomycin, daptomycin]",MIC,Escherichia coli L47,> 128 µg/mL
same,MIC,"Candida albicans L145; C. albicans L14, 24 h, 35° C.",> 128 µg/mL
same,MIC,[1],0.5 µg/mL
"c1c[nH]cn1 [Imidazole, imidazole]",MIC,Candida albicans L145; C. albicans L14,3.9 mM
B1,gliadin digestion,gliadin,completely digested
same,pH range of marked glutenase activity,[2]; native E40,3-6
same,pH optimum of relative activity,"[2]; native E40-containing Actinoallomurus A8 supernatant fraction, sucAAPF-AMC",5
